The results in this text go back to US20250051322A1, “CRYSTAL OF S[…], SALTS OF S[…], AND CRYSTALS THEREOF” (Eisai R&D Management Co., Ltd., priority 2022, published 2025).

Molecules are shown by their SMILES.

In one test the target is T1, hOX1R (Homo sapiens, UniProt O43613).
T1 construct: expressed in transfected cells; host or cells: HEK293
T1 sequence (O43613 1-425): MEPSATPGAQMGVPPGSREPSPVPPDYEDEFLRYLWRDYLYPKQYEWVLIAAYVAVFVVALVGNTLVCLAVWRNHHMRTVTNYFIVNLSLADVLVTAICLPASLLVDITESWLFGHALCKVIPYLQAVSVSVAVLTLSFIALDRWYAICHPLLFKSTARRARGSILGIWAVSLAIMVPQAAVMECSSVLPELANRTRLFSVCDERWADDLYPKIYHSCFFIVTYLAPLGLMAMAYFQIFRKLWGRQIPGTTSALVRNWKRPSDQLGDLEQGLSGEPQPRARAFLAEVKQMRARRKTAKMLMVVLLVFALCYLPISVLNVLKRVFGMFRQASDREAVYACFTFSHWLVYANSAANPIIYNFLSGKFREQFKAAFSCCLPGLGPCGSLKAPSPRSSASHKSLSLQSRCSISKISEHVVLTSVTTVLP
Briefly: Test Example 1-1: activating activity for OX1R (intracellular calcium, HEK293 with forced expression). The format is cell-based. To be noted: calcium fluorescence, 3×10^-10 M to 1×10^-7 M, 10 nM OX-A as 100%. Here is the method: Human Embryonic Kidney cells 293 (HEK293) cells with forced expression of hOX1R and hOX2R were seeded in a 384-well microplate (Greiner) at 10,000 per well and cultured for 24 hours in high-glucose-DMEM (FujiFilm Corp.-Wako Pure Chemical Industries, Ltd.) containing added 10% FBS (Thermo Scientific) and 1% Penicillin-Streptomycin (FujiFilm Corp.-Wako Pure Chemical Industries, Ltd.). After removing the medium, there was added 40 μL of assay buffer (20 mM HEPES (Sigma-Aldrich Japan, KK.), Hank's Balanced Salt Solution (Gibco), 0.1% BSA (Sigma-Aldrich Japan, KK.), 0.1% Pluronic F-127 (Biotium, Inc.)) containing Calcium 4 dye (Molecular Device Corporation) and 2.5 mM probenecid (Sigma-Aldrich Japan, KK.), and the mixture was incubated for 60 minutes. After further adding 20 μL of assay buffer, 20 μL of assay buffer containing the test compound was added and reaction was initiated. Change in intracellular calcium ion concentration by the reaction was measured based on the fluorescence intensity ratio in terms of the fluorescence value with dual wavelength excitation at 480 nm and 540 nm, using FDSS7000 (Hamamatsu Photonics, K.K.). The test compound was dissolved in DMSO to 10 mM, and diluted with assay buffer to a final concentration of from 3×10^−10 M to 1×10^−7 M (DMSO final concentration of 0.1%). […]
(In general: Calcium assays in cells follow changes in intracellular calcium, usually with a dye or a luminescent sensor.)

The next test has as its system Male C57BL/6NCrl mice. Briefly: Test Example 2: increase in spontaneous movement. The format is in vivo, mouse. Particulars: 10 mg/kg orally, measured 2 hours after administration, control group = 100%. Here is the method:
Increased movement in mice is an indicator of increased alertness time, higher body temperature and augmented cardiovascular parameters, as well as heightened alertness. In this test example, the alertness effect was evaluated by measuring spontaneous movement of the mice. Male C57BL/6NCrl mice (18-19 weeks old, Charles River Laboratories, Japan Inc., 4 mice in each group) were used for the experiment. Spontaneous movement was measured by using a movement measuring device (VersaMax Open Field, AccuScan Instruments, Inc.), irradiating infrared rays from the side sections of the measuring cage, and quantifying the number of times that the mice passed through the irradiated rays. After placing the mice in the measuring cage and conditioning for 3 hours, compound (I) was orally administered (10 mg/kg). Spontaneous movement was measured 2 hours after administration. The mice in the compound (I)-administered group were administered a solution of compound (I) dissolved in 0.1 mol/L hydrochloric acid containing 5% (v/v) DMSO and 5% (v/v) Kolliphor^R EL. For the control group, solvent alone without compound (I) was administered to the mice.
Spontaneous movement was represented as a percentage for the compound (I)-administered group, with spontaneous movement in the control group as 100%.

Test [1] has as its system C57BL/6 line wild type (WT) male mice. Briefly: Test Example 3: alertness effect (sleep latency, EEG/EMG) by dark period oral administration to wild type mice. The test is classed as in vivo, mouse. Particulars: before lights off, solvent 0.23 hour. Here is the method:
The experimental animals used were C57BL/6 line wild type (WT) male mice. Electroencephalogram and electromyogram measuring electrodes were surgically embedded into 13-week-old mice under isoflurane anesthesia. After surgery, and following conditioning to the illumination cycle and experimentation procedure, electroencephalogram and electromyogram measurement were carried out and mice with proper electroencephalogram and electromyogram recordings were supplied for the experiment. The solvent (0 mg/kg) or a solution of compound (I) dissolved in the solvent (1, 3 or 10 mg/kg) was orally administered 30 to 15 minutes before lighting was turned off. The solvent used was a 0.1 mol/L hydrochloric acid solution containing 5% (v/v) DMSO and 5% (v/v) Kolliphor^R EL. The electroencephalogram and electromyogram were recorded for about 24 hours, from 1 hour before lighting was turned off. The mice were repeatedly used, with a washout period of 2 days or longer. The electroencephalogram and electromyogram data obtained for each mouse were used to assess the sleep stage every epoch (10 seconds), using sleep analysis software (SleepSign: Kissei Comtec Co., Ltd.). […] Using 16 mice in each administered group, the sleep latency in a solvent-administered group (control group) and a compound (I)-administered group were compared by a Dunnet-type multiple comparison test following survival time analysis in consideration of the number of experiments and use of the same individuals, with a significance level of 5% at both ends for each.

Test [2] concerns orexin/ataxin 3 mice (Tg mice). Briefly: Test Example 4: alertness effect and cataplexy-like behavior inhibiting effect by dark period oral administration to orexin/ataxin 3 mice. The test is classed as in vivo, mouse. To be noted: for DREM latency: solvent 1.16 hours, assessed up to maximum 4 hours; for sleep latency: before lights off, solvent 0.21 hour. An excerpt:
The experimental animals used were orexin/ataxin 3 mice (orexin/ataxin-3 Tg/+ (hereunder referred to as “Tg mice”), Hara et al., Neuron, 30, 345-54, 2001) with a C57BL/6 genetic background, with wild type mice (hereunder referred to as “WT mice”) of the same litter as the control. Electroencephalogram and electromyogram measuring electrodes were surgically embedded into 12-week-old mice (+2 weeks) under isoflurane anesthesia. After surgery, and following conditioning to the illumination cycle and experimentation procedure, electroencephalogram and electromyogram measurement were carried out and mice with proper electroencephalogram and electromyogram recording were supplied for the experiment. The solvent (0 mg/kg) or a specimen (solution of compound (I) dissolved in the solvent (0.3, 1 or 3 mg/kg)) was orally administered 30 to 15 minutes before lighting was turned off. The solvent used was a 0.1 mol/L hydrochloric acid solution containing 5% (v/v) DMSO and 5% (v/v) Kolliphor^R EL. The electroencephalogram and electromyogram were recorded for about 24 hours, from 1 hour before lighting was turned off. The mice were repeatedly used, with a washout period of 2 days or longer. The electroencephalogram and electromyogram data obtained for each mouse were used to assess the sleep stage every epoch (10 seconds), using sleep analysis software (SleepSign: Kissei Comtec Co., Ltd.), up to a maximum of 4 hours. For the purpose of this experiment, cataplexy-like symptoms were defined as REM sleep appearing immediately after wakefulness (direct transitions from wake to REM sleep (DREM)) for a contiguous period of 4 epochs or longer. DREM in mice is an analog of cataplexy (Exp Neurol. 2009:217:46-54). The time until initial sleep appeared after lighting out for each mouse (sleep for contiguous 8 epochs or longer, excluding DREM) (sleep latency) and the time until initial DREM appeared (DREM latency) were measured. The numbers of mice were 8 in the solvent-administered group and 14 in the compound (I)-administered group. The sleep latency in a disease control group and a compound (I)-administered group were compared by a Dunnet-type multiple comparison test following survival time analysis in consideration of the number of experiments and use of the same individuals, with a significance level of 5% at both ends for each. The DREM latency in the normal control group and disease control group were compared by survival time analysis in consideration of the number of experiments and use of the same individuals. Cases with significance in the statistical test for the disease control group and the compound (I)-administered group were compared by a Dunnet-type multiple comparison test following survival time analysis in consideration of the number of experiments and use of the same individuals, with a significance level of 5% at both ends for each.

In general, EC50 refers to the concentration needed to bring the measured effect to its halfway point. On to `CO[C@@H]1CN(c2ncc(F)cn2)CC[C@@H]1[C@@H]1C[C@H]2CC[C@@H](C1)N2[C@@H](C(N)=O)C1CC1` [Compound (I), (2R)-2-cyclopropyl-2-{(1R,3S,5S)-3-[(3S,4R)-1-(5-fluoropyrimidin-2-yl)-3-methoxypiperidin-4-yl]-8-azabicyclo[3.2.1]octan-8-yl}acetamide], for which the EC50 at hOX1R was greater than 100 nM. Moreover, the “Spontaneous movement (% of Control)” value in the test with Male C57BL/6NCrl mice is listed as 865 % of Control. For the same molecule, the sleep latency in test [1] (1 mg/kg oral) came out at 0.28 h; in test [1] (3 mg/kg oral, significant), 0.44 h; in test [1] (10 mg/kg oral, significant), 2.07 h. Further, the DREM latency in test [2] (0.3 mg/kg oral, significant) was 1.50 h; in test [2] (1 mg/kg oral, significant) it was 2.26 h; in test [2] (3 mg/kg oral, significant) it was 4.00 h.
Consider `CO[C@@H]1CN(c2ncc(F)cn2)CC[C@@H]1[C@@H]1C[C@H]2CC[C@@H](C1)N2[C@@H](C(N)=O)C1CC1` [Example 1, (2R)-2-cyclopropyl-2-{(1R,3S,5S)-3-[(3S,4R)-1-(5-fluoropyrimidin-2-yl)-3-methoxypiperidin-4-yl]-8-azabicyclo[3.2.1]octan-8-yl}acetamide], for which the sleep latency in test [2] (0.3 mg/kg oral) worked out at 0.31 h; in test [2] (1 mg/kg oral, significant), 0.64 h; in test [2] (3 mg/kg oral, significant), 2.42 h.
